Test results as given in ChEMBL document CHEMBL6134918, “Novel Indole and Pyrrolopyridine Derivatives as GPR17 Modulators for Treating Multiple Sclerosis” (ACS Med Chem Lett, 2025).
pIC50: −log10 of the molar value.

The compounds below were run against Uracil nucleotide/cysteinyl leukotriene receptor (Homo sapiens, UniProt Q13304) (assay: Inhibition of full length GPR17 (unknown origin) stably expressed in human 1321N1 cells incubated for 15 mins by cAMP based HTRF assay).
Assay type: functional, cell-based

Uracil nucleotide/cysteinyl leukotriene receptor, sequence (Q13304 whole entry): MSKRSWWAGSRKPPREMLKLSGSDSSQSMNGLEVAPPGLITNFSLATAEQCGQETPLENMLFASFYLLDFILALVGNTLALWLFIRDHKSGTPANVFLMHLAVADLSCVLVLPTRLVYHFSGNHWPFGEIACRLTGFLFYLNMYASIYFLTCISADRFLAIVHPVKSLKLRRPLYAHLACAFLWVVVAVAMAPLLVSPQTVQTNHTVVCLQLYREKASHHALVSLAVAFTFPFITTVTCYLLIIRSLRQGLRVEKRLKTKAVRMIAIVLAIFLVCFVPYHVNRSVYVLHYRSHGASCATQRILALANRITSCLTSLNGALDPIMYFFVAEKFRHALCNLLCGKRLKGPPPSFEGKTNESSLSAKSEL

Row | SMILES | pIC50
1 | Cc1onc(NS(=O)(=O)c2c[nH]c3cc(Cl)c(Cl)cc23)c1Cl | > 7.00
2 | O=S(=O)(Nc1ncc(C(F)(F)F)s1)c1c[nH]c2cc(Cl)ccc12 | > 7.00
3 | Cc1snc(NS(=O)(=O)c2c[nH]c3cc(Cl)ccc23)c1Cl | > 7.00
4 | N#Cc1c(NS(=O)(=O)c2c[nH]c3cc(Cl)ccc23)cnn1CCCl | > 7.00
5 | N#Cc1c(NS(=O)(=O)c2c[nH]c3cc(Cl)ccc23)cnn1CCC(F)(F)F | > 7.00
6 | CCCn1ncc(NS(=O)(=O)c2c[nH]c3cc(Cl)ccc23)c1C#N | > 7.00
